Results published in patent US20030100757A1, “2-(4-aryl or heteroaryl-piperazin-1-ylmethyl)-1H-indole derivatives interacting with the dopamine D4 receptor” (Pfizer Inc., priority 2001, published 2003).

Row | melting point [°C] | Structure (SMILES)
1 | 196 to 197 | Fc1ccc2[nH]c(CN3CCN(c4cccc(C(F)(F)F)c4)CC3)cc2c1 [Example 10, 5-Fluoro-2-[4-(3-trifluoromethyl-phenyl)-piperazin-1-ylmethyl]-1H-indole]
2 | 238 to 239 | c1ccc2[nH]c(CN3CCN(c4cccc5ccccc45)CC3)cc2c1 [Example 11, 2-(4-Naphthalen-1-yl-piperazin-1-ylmethyl)-1H-indole]
3 | 192 to 194 | FC(F)(F)c1cccc(N2CCN(Cc3cc4ccccc4[nH]3)CC2)c1 [Example 5, 2-[4-(3-Trifluoromethyl-phenyl)-piperazin-1-ylmethyl]-1 H-indole]
4 | 199 | Fc1ccc2[nH]c(CN3CCN(c4ncccn4)CC3)cc2c1 [Example 17, 5-Fluoro-2-(4-pyrimidin-2-yl-piperazin-1-ylmethyl)-1H-indole]
5 | 210 to 211 | O=[N+]([O-])c1ccccc1N1CCN(Cc2cc3ccccc3[nH]2)CC1 [Example 12, 2-[4-(2-Nitro-phenyl)-piperazin-1-ylmethyl]-1H-indole]
6 | 188 to 190 | Oc1ccc2[nH]c(CN3CCN(c4cccc(C(F)(F)F)c4)CC3)cc2c1 [Example 4, 2-[4-(3-Trifluoromethyl-phenyl)-piperazin-1-ylmethyl]-1H-indol-5-ol]
7 | 198 | O=C(c1cc2cc(F)ccc2[nH]1)N1CCN(c2cccc(C(F)(F)F)c2)CC1 [Example 8, (5-Fluoro-1H-indol-2-yl)-[4-(3-trifluoromethyl-phenyl)-piperazin-1-yl]-methanone]
8 | 150 to 152 | c1ccc2[nH]c(CN3CCN(c4nsc5ccccc45)CC3)cc2c1 [Example 9, 3-[4-(1H-Indol-2-ylmethyl)-piperazin-1-yl]-benzo[d]isothiazole]
9 | 236 | O=[N+]([O-])c1ccccc1N1CCN(Cc2cc3cc(F)ccc3[nH]2)CC1 [Example 13, 5-Fluoro-2-[4-(2-nitro-phenyl)-piperazin-1-ylmethyl]-1H-indole]
10 | 184 to 188 | O=C(c1cc2cc(F)ccc2[nH]1)N1CCN(c2ccccc2[N+](=O)[O-])CC1 [Example 7, (5-Fluoro-1H-indol-2-yl)-[4-(2-nitro-phenyl)-piperazin-1-yl]-methanone]
11 | 249 to 250 | Fc1ccc2[nH]c(CN3CCN(c4cccc5ccccc45)CC3)cc2c1 [Example 14, 5-Fluoro-2-(4-naphthalen-1-yl-piperazin-1-ylmethyl)-1H-indole]
12 | 214 to 218 | O=C(c1cc2cc(F)ccc2[nH]1)N1CCN(c2ccccn2)CC1 [Example 18, (5-Fluoro-1H-indol-2-yl)-(4-pyridin-2-yl-piperazin-1-yl)-methanone]
